Laboratory results from patent publication US8937072B2, “Substituted cyanoaniline compounds, preparation and use thereof” (Sinochem Corporation, priority 2011, dated 2015).
Like-named read-outs stand apart in the source and are kept apart here.

Assays:
[1] = tested on: rice blast; assay: microbe, parasite or virus in culture; type: cell-based; details: Pyricularia oryzae; for inhibition at 0.03 µg/mL: read-out: the inhibition rate against rice blast (%) 0.03 mg/L; for inhibition at 0.1 µg/mL: read-out: the inhibition rate against rice blast (%) 0.1 mg/L; for inhibition at 0.3 µg/mL: read-out: the inhibition rate against rice blast (%) 0.3 mg/L; for inhibition at 25 µg/mL: read-out: inhibition rate against rice blast
[2] = tested on: cucumber gray mold; assay: Activity in vitro (96-well, High Through Put): inhibition rate against cucumber gray mold; type: cell-based; details: for inhibition at 0.3 µg/mL: 0.3 mg/L; for inhibition at 0.9 µg/mL: 0.9 mg/L; for inhibition at 25 µg/mL: dose 25 mg/L
Procedure, shortened: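 Scored visually at 24 hours relative to control, the readout is pathogen germination or growth. Test solutions used acetone, methanol or DMF as solvent and were mixed with pathogen suspension in a sterile high-throughput format at constant temperature.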

[3] = tested on: cucumber downy mildew; assay: Protectant activity in vivo (whole plant) against cucumber downy mildew; details: Cucumis sativus, 168 h; for pest or weed control at 12.5 µg/mL: 12.5 mg/L; for pest or weed control at 400 µg/mL: dose 400 mg/L
Procedure, shortened: (§1)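 Whole plants sprayed with test solution, water plus 0.1% Tween-80 and no more than 5% solvent, then inoculated with the pathogen after 24 h. Plants held in humidity chamber or directly in greenhouse depending on fungus. Disease control scored by eye at about 7 days.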

[4] = tested on: corn rust; assay: Protectant activity in vivo (whole plant) against corn rust; details: Zea mays, 168 h; for pest or weed control at 6.25 µg/mL: 6.25 mg/L; for pest or weed control at 25 µg/mL: 25 mg/L; for pest or weed control at 100 µg/mL: 100 mg/L
Procedure, shortened: as §1

[5] = tested on: wheat powdery mildew; assay: Protectant activity in vivo (whole plant) against wheat powdery mildew; details: Triticum aestivum, 168 h; for pest or weed control at 400 µg/mL: dose 400 mg/L
Experimental: The method is as followed: The whole plant is used in this test. The compound is dissolved in a proper solvent to get mother solution. The proper solvent is selected from acetone, methanol, DMF and so on according to their dissolving capability to the sample. The volume rate of solvent and testing solution (v/v) is equal to or less than 5%. The mother solution is diluted with water containing 0.1% tween-80 to get the testing solution whose concentration is designed. The testing solution is sprayed to the host plant by a special plant sprayer. The plant is inoculated with fungus after 24 hours. According to the infecting characteristic of fungus, the plant is stored in a humidity chamber and then transferred into greenhouse after infection is finished. And the other plants are placed in greenhouse directly. The activity of compound is obtained by eyeballing after 7 days in common.

[6] = tested on: plasmopora viticola; details: at high dose; cited from earlier work
[7] = tested on: blast of rice; details: at 500 ppm; cited from earlier work
[8] = tested on: canker of citrus fruit; details: at 500 ppm; cited from earlier work
[9] = tested on: pear scab; details: in vivo; cited from earlier work
[10] = read-out: the inhibition rate against cucumber gray mold (%)
[11] = 2.8 mg/L, read-out: the inhibition rate against cucumber gray mold (%)
[12] = 8.3 mg/L, read-out: the inhibition rate against cucumber gray mold (%)
[13] = 25 mg/L, read-out: the protectant activity (%) against cucumber downy mildew
[14] = 50 mg/L, read-out: the protectant activity (%) against cucumber downy mildew
[15] = 100 mg/L, read-out: the protectant activity (%) against cucumber downy mildew
[16] = dose 100 mg/L, read-out: protectant activity against cucumber downy mildew in vivo
[17] = 400 mg/L, read-out: the protectant activity (%) against corn rust
[18] = dose 400 mg/L, read-out: protectant activity against corn rust in vivo
[19] = in vitro, dose 8.3 mg/L, read-out: inhibition rate against cucumber gray mold
[20] = dose 25 mg/L, read-out: protectant activity against cucumber downy mildew in vivo
[21] = dose 50 mg/L, read-out: protectant activity against cucumber downy mildew in vivo

N#Cc1c(Cl)c(Cl)c(Nc2ccccc2)c(Cl)c1C#N [KC14]
30%: pest or weed control at 400 µg/mL [5]
some activity: activity on relevant diseases such as plasmopora viticola [6]
0%: inhibition at 0.03 µg/mL [1] | inhibition at 0.1 µg/mL [1] | inhibition at 0.3 µg/mL [1] | inhibition at 0.3 µg/mL [2] | inhibition at 0.9 µg/mL [2, 10] | inhibition at 2.8 µg/mL [2, 11] | inhibition at 8.3 µg/mL [2, 12] | inhibition at 25 µg/mL ([2]; in vitro) | pest or weed control at 12.5 µg/mL [3] | pest or weed control at 25 µg/mL [3, 13] | pest or weed control at 50 µg/mL [3, 14] | pest or weed control at 100 µg/mL [3, 15] | pest or weed control at 100 µg/mL [3, 16] | pest or weed control at 6.25 µg/mL [4] | pest or weed control at 25 µg/mL [4] | pest or weed control at 100 µg/mL [4] | pest or weed control at 400 µg/mL [4, 17] | pest or weed control at 400 µg/mL [4, 18] | pest or weed control at 100 µg/mL ([5]; dose 100 mg/L)

N#Cc1c(F)c(F)c(Nc2ccc(Cl)cc2)c(C#N)c1F [KC8]
0 mm: bacteriostatic diameter against canker of citrus fruit [8]
90%: control against pear scab [9]
0%: inhibition at 0.03 µg/mL [1] | inhibition at 0.1 µg/mL [1] | inhibition at 0.3 µg/mL [1] | inhibition at 0.3 µg/mL [2] | inhibition at 0.9 µg/mL [2, 10] | inhibition at 2.8 µg/mL [2, 11] | inhibition at 8.3 µg/mL [2, 12] | inhibition at 8.3 µg/mL [2, 19] | pest or weed control at 12.5 µg/mL [3] | pest or weed control at 25 µg/mL [3, 13] | pest or weed control at 50 µg/mL [3, 14] | pest or weed control at 100 µg/mL [3, 15] | pest or weed control at 400 µg/mL [3] | pest or weed control at 6.25 µg/mL [4] | pest or weed control at 25 µg/mL [4] | pest or weed control at 100 µg/mL [4] | pest or weed control at 400 µg/mL [4, 17] | pest or weed control at 400 µg/mL [4, 18] | pest or weed control at 400 µg/mL [5]
10.2 mm: bacteriostatic diameter against blast of rice [7]

N#Cc1c(F)c(F)c(Nc2ccccc2)c(C#N)c1F [KC7]
20%: pest or weed control at 100 µg/mL [3, 15] | pest or weed control at 100 µg/mL [3, 16]
0%: inhibition at 0.03 µg/mL [1] | inhibition at 0.1 µg/mL [1] | inhibition at 0.3 µg/mL [1] | inhibition at 0.3 µg/mL [2] | inhibition at 0.9 µg/mL [2, 10] | inhibition at 2.8 µg/mL [2, 11] | inhibition at 8.3 µg/mL [2, 12] | inhibition at 8.3 µg/mL [2, 19] | pest or weed control at 12.5 µg/mL [3] | pest or weed control at 25 µg/mL [3, 13] | pest or weed control at 25 µg/mL [3, 20] | pest or weed control at 400 µg/mL [5]
22.5 mm: bacteriostatic diameter against blast of rice [7]
13.8 mm: bacteriostatic diameter against canker of citrus fruit [8]
100%: control against pear scab [9]
10%: pest or weed control at 50 µg/mL [3, 14] | pest or weed control at 50 µg/mL [3, 21]

N#Cc1c(Cl)c(Cl)c(C#N)c(Nc2ccccc2)c1Cl [KC15]
some activity: activity on relevant diseases such as plasmopora viticola [6]
20%: pest or weed control at 100 µg/mL [3, 15] | pest or weed control at 100 µg/mL [3, 16]
10%: pest or weed control at 50 µg/mL [3, 14] | pest or weed control at 50 µg/mL [3, 21]
0%: inhibition at 0.03 µg/mL [1] | inhibition at 0.1 µg/mL [1] | inhibition at 0.3 µg/mL [1] | inhibition at 0.3 µg/mL [2] | inhibition at 0.9 µg/mL [2, 10] | inhibition at 2.8 µg/mL [2, 11] | inhibition at 8.3 µg/mL [2, 12] | inhibition at 25 µg/mL ([2]; in vitro) | pest or weed control at 12.5 µg/mL [3] | pest or weed control at 25 µg/mL [3, 13] | pest or weed control at 25 µg/mL [3, 20] | pest or weed control at 6.25 µg/mL [4] | pest or weed control at 25 µg/mL [4] | pest or weed control at 100 µg/mL [4] | pest or weed control at 400 µg/mL [4, 17] | pest or weed control at 400 µg/mL [4, 18] | pest or weed control at 400 µg/mL [5]

N#Cc1ccc(Nc2c(Cl)c(F)c(C#N)c(F)c2C#N)cc1 [KC21]
80%: pest or weed control at 400 µg/mL [4, 17]
0%: inhibition at 25 µg/mL [1] | inhibition at 0.03 µg/mL [1] | inhibition at 0.1 µg/mL [1] | inhibition at 0.3 µg/mL [1] | inhibition at 0.3 µg/mL [2] | inhibition at 0.9 µg/mL [2, 10] | inhibition at 2.8 µg/mL [2, 11] | inhibition at 8.3 µg/mL [2, 12] | inhibition at 25 µg/mL ([2]; in vitro) | pest or weed control at 400 µg/mL [5]
70%: pest or weed control at 100 µg/mL [3, 15]

N#Cc1c(Cl)c(Cl)c(Nc2ccc(Cl)cc2)c(C#N)c1Cl [KC2]
0%: inhibition at 25 µg/mL [1] | inhibition at 0.03 µg/mL [1] | inhibition at 0.1 µg/mL [1] | inhibition at 0.3 µg/mL [1] | inhibition at 0.3 µg/mL [2] | inhibition at 0.9 µg/mL [2, 10] | inhibition at 2.8 µg/mL [2, 11] | inhibition at 8.3 µg/mL [2, 12] | inhibition at 25 µg/mL ([2]; in vitro) | pest or weed control at 12.5 µg/mL [3] | pest or weed control at 25 µg/mL [3, 13] | pest or weed control at 50 µg/mL [3, 14] | pest or weed control at 100 µg/mL [3, 15] | pest or weed control at 400 µg/mL [3] | pest or weed control at 6.25 µg/mL [4] | pest or weed control at 25 µg/mL [4] | pest or weed control at 100 µg/mL [4] | pest or weed control at 400 µg/mL [4, 17] | pest or weed control at 400 µg/mL [4, 18] | pest or weed control at 400 µg/mL [5]

N#Cc1c(Cl)c(Cl)c(Nc2ccccc2)c(C#N)c1Cl [KC1]
some activity: activity on relevant diseases such as plasmopora viticola [6]
0%: inhibition at 25 µg/mL [1] | inhibition at 0.03 µg/mL [1] | inhibition at 0.1 µg/mL [1] | inhibition at 0.3 µg/mL [1] | inhibition at 0.3 µg/mL [2] | inhibition at 0.9 µg/mL [2, 10] | inhibition at 2.8 µg/mL [2, 11] | inhibition at 8.3 µg/mL [2, 12] | inhibition at 25 µg/mL ([2]; in vitro) | pest or weed control at 12.5 µg/mL [3] | pest or weed control at 25 µg/mL [3, 13] | pest or weed control at 50 µg/mL [3, 14] | pest or weed control at 100 µg/mL [3, 15] | pest or weed control at 400 µg/mL [3] | pest or weed control at 6.25 µg/mL [4] | pest or weed control at 25 µg/mL [4] | pest or weed control at 100 µg/mL [4] | pest or weed control at 400 µg/mL [4, 17] | pest or weed control at 400 µg/mL [4, 18] | pest or weed control at 400 µg/mL [5]

N#Cc1c(F)c(F)c(Nc2ccc(Cl)c(Cl)c2)c(C#N)c1F [KC12]
15.5 mm: bacteriostatic diameter against blast of rice [7]
20%: pest or weed control at 100 µg/mL [3, 16]
0%: inhibition at 25 µg/mL [1] | inhibition at 0.03 µg/mL [1] | inhibition at 0.1 µg/mL [1] | inhibition at 0.3 µg/mL [1] | inhibition at 0.3 µg/mL [2] | inhibition at 0.9 µg/mL [2, 10] | inhibition at 2.8 µg/mL [2, 11] | inhibition at 2.8 µg/mL ([2]; in vitro, dose 2.8 mg/L, read-out: inhibition rate against cucumber gray mold) | pest or weed control at 12.5 µg/mL [3] | pest or weed control at 25 µg/mL [3, 13] | pest or weed control at 50 µg/mL [3, 14] | pest or weed control at 100 µg/mL [3, 15] | pest or weed control at 6.25 µg/mL [4] | pest or weed control at 25 µg/mL [4] | pest or weed control at 100 µg/mL [4] | pest or weed control at 400 µg/mL [4, 17] | pest or weed control at 400 µg/mL [4, 18] | pest or weed control at 400 µg/mL [5]
80%: inhibition at 8.3 µg/mL [2, 12]
0 mm: bacteriostatic diameter against canker of citrus fruit [8]
